Measured values from ChEMBL document CHEMBL3044649, “Zn(OTf)2-catalyzed three component, one-pot cyclocondensation reaction of some new octahydroquinazolinone derivatives and access their bio-potential” (2012).
Values after ≈ are worked out from the molar mass of the structure shown.

Experiments:
Type in all cases: functional
Vibrio cholerae = assay: Antimicrobial activity against Vibrio cholerae MTCC 3906 after 24 to 48 hr by broth microdilution method
Salmonella typhi = assay: Antimicrobial activity against Salmonella enterica subsp. enterica serovar Typhi MTCC 98 after 24 to 48 hr by broth microdilution method
Aspergillus fumigatus = assay: Antimicrobial activity against Aspergillus fumigatus MTCC 3008 after 24 to 48 hr by broth microdilution method
Clostridium tetani = assay: Antimicrobial activity against Clostridium tetani MTCC 449 after 24 to 48 hr by broth microdilution method
Candida albicans = assay: Antimicrobial activity against Candida albicans MTCC 227 after 24 to 48 hr by broth microdilution method
Streptococcus pneumoniae = assay: Antimicrobial activity against Streptococcus pneumoniae MTCC 1936 after 24 to 48 hr by broth microdilution method
Bacillus subtilis = assay: Antimicrobial activity against Bacillus subtilis MTCC 441 after 24 to 48 hr by broth microdilution method
Escherichia coli = assay: Antimicrobial activity against Escherichia coli MTCC 443 after 24 to 48 hr by broth microdilution method

Molecule	MIC (Vibrio cholerae)	MIC (Salmonella typhi)	MIC (Aspergillus fumigatus)	MIC (Clostridium tetani)	MIC (Candida albicans)	MIC (Streptococcus pneumoniae)	MIC (Bacillus subtilis)	MIC (Escherichia coli)
O=C1NC2=C(C(=O)CCC2)C(c2cc3cc(Cl)ccc3[nH]c2=O)N1 (stereo not drawn)	100 µg/mL (≈ 291 µM)	250 µg/mL (≈ 727 µM)	1000 µg/mL (≈ 2910 µM)	500 µg/mL (≈ 1450 µM)	1000 µg/mL (≈ 2910 µM)	500 µg/mL (≈ 1450 µM)	250 µg/mL (≈ 727 µM)	200 µg/mL (≈ 582 µM)
CC1(C)CC(=O)C2=C(C1)NC(=O)NC2c1cc2cc(Cl)ccc2[nH]c1=O (stereo not drawn)	500 µg/mL (≈ 1340 µM)	200 µg/mL (≈ 538 µM)	> 1000 µg/mL	100 µg/mL (≈ 269 µM)	500 µg/mL (≈ 1340 µM)	500 µg/mL (≈ 1340 µM)	200 µg/mL (≈ 538 µM)	100 µg/mL (≈ 269 µM)
Cc1ccc2[nH]c(=O)c(C3NC(=S)N(c4ccccc4)C4=C3C(=O)CCC4)cc2c1 (stereo not drawn)	500 µg/mL (≈ 1200 µM)	250 µg/mL (≈ 602 µM)	500 µg/mL (≈ 1200 µM)	250 µg/mL (≈ 602 µM)	1000 µg/mL (≈ 2410 µM)	500 µg/mL (≈ 1200 µM)	500 µg/mL (≈ 1200 µM)	500 µg/mL (≈ 1200 µM)
COc1ccc2[nH]c(=O)c(C3NC(=O)NC4=C3C(=O)CC(C)(C)C4)cc2c1 (stereo not drawn)	50 µg/mL (≈ 136 µM)	150 µg/mL (≈ 408 µM)	1000 µg/mL (≈ 2720 µM)	100 µg/mL (≈ 272 µM)	500 µg/mL (≈ 1360 µM)	250 µg/mL (≈ 680 µM)	250 µg/mL (≈ 680 µM)	100 µg/mL (≈ 272 µM)
CC1(C)CC(=O)C2=C(C1)NC(=O)NC2c1cc2ccccc2[nH]c1=S (stereo not drawn)	200 µg/mL (≈ 566 µM)	500 µg/mL (≈ 1410 µM)	100 µg/mL (≈ 283 µM)	500 µg/mL (≈ 1410 µM)	100 µg/mL (≈ 283 µM)	250 µg/mL (≈ 707 µM)	500 µg/mL (≈ 1410 µM)	500 µg/mL (≈ 1410 µM)
CC1(C)CC(=O)C2=C(C1)NC(=S)NC2c1cc2ccccc2[nH]c1=S (stereo not drawn)	250 µg/mL (≈ 677 µM)	100 µg/mL (≈ 271 µM)	500 µg/mL (≈ 1350 µM)	200 µg/mL (≈ 541 µM)	250 µg/mL (≈ 677 µM)	500 µg/mL (≈ 1350 µM)	250 µg/mL (≈ 677 µM)	100 µg/mL (≈ 271 µM)
Cc1ccc2[nH]c(=O)c(C3NC(=S)N(c4ccccc4)C4=C3C(=O)CC(C)(C)C4)cc2c1 (stereo not drawn)	250 µg/mL (≈ 564 µM)	500 µg/mL (≈ 1130 µM)	500 µg/mL (≈ 1130 µM)	250 µg/mL (≈ 564 µM)	1000 µg/mL (≈ 2250 µM)	1000 µg/mL (≈ 2250 µM)	250 µg/mL (≈ 564 µM)	1000 µg/mL (≈ 2250 µM)
O=C1CCCC2=C1C(c1cc3ccccc3[nH]c1=O)NC(=S)N2c1ccccc1 (stereo not drawn)	200 µg/mL (≈ 498 µM)	100 µg/mL (≈ 249 µM)	250 µg/mL (≈ 623 µM)	100 µg/mL (≈ 249 µM)	500 µg/mL (≈ 1250 µM)	150 µg/mL (≈ 374 µM)	250 µg/mL (≈ 623 µM)	150 µg/mL (≈ 374 µM)
Cc1ccc2[nH]c(=O)c(C3NC(=O)NC4=C3C(=O)CCC4)cc2c1 (stereo not drawn)	200 µg/mL (≈ 619 µM)	500 µg/mL (≈ 1550 µM)	1000 µg/mL (≈ 3090 µM)	200 µg/mL (≈ 619 µM)	1000 µg/mL (≈ 3090 µM)	100 µg/mL (≈ 309 µM)	500 µg/mL (≈ 1550 µM)	500 µg/mL (≈ 1550 µM)
O=C1CCCC2=C1C(c1cc3ccccc3[nH]c1=S)NC(=S)N2 (stereo not drawn)	250 µg/mL (≈ 732 µM)	200 µg/mL (≈ 586 µM)	> 1000 µg/mL	250 µg/mL (≈ 732 µM)	250 µg/mL (≈ 732 µM)	500 µg/mL (≈ 1460 µM)	250 µg/mL (≈ 732 µM)	250 µg/mL (≈ 732 µM)
GENTAMICIN	5 µg/mL	5 µg/mL		5 µg/mL		0.5 µg/mL	1 µg/mL	0.05 µg/mL
COc1ccc2[nH]c(=O)c(C3NC(=S)NC4=C3C(=O)CC(C)(C)C4)cc2c1 (stereo not drawn)	200 µg/mL (≈ 522 µM)	250 µg/mL (≈ 652 µM)	> 1000 µg/mL	200 µg/mL (≈ 522 µM)	500 µg/mL (≈ 1300 µM)	200 µg/mL (≈ 522 µM)	200 µg/mL (≈ 522 µM)	500 µg/mL (≈ 1300 µM)
O=C1NC2=C(C(=O)CCC2)C(c2cc3ccccc3[nH]c2=S)N1 (stereo not drawn)	500 µg/mL (≈ 1540 µM)	200 µg/mL (≈ 615 µM)	500 µg/mL (≈ 1540 µM)	500 µg/mL (≈ 1540 µM)	1000 µg/mL (≈ 3070 µM)	500 µg/mL (≈ 1540 µM)	500 µg/mL (≈ 1540 µM)	500 µg/mL (≈ 1540 µM)
COC1=CC(=O)C[C@@H](C)[C@]12Oc1c(Cl)c(OC)cc(OC)c1C2=O [GRISEOFULVIN]			100 µg/mL (≈ 283 µM)		500 µg/mL (≈ 1420 µM)			
O=C1CCCC2=C1C(c1cc3ccccc3[nH]c1=O)NC(=S)N2 (stereo not drawn)	500 µg/mL (≈ 1540 µM)	500 µg/mL (≈ 1540 µM)	200 µg/mL (≈ 615 µM)	200 µg/mL (≈ 615 µM)	100 µg/mL (≈ 307 µM)	200 µg/mL (≈ 615 µM)	200 µg/mL (≈ 615 µM)	100 µg/mL (≈ 307 µM)
O=C(N[C@H](CO)[C@H](O)c1ccc([N+](=O)[O-])cc1)C(Cl)Cl [CHLORAMPHENICOL]	50 µg/mL (≈ 155 µM)	50 µg/mL (≈ 155 µM)		50 µg/mL (≈ 155 µM)		50 µg/mL (≈ 155 µM)	50 µg/mL (≈ 155 µM)	50 µg/mL (≈ 155 µM)
